pEC50, pIC50: −log10 of the molar value. Where two headings read alike, the source gives them in different places.
Tests used:
MetRS (T. brucei) = MetRS (T. brucei) (Trypanosoma brucei brucei, UniProt Q38C91); test: MetRS (T. brucei) ATP depletion assay using Kinase-Glo; type: biochemical
T. brucei = test: Growth inhibition assay of T. brucei cell cultures (Alamar Blue, 48 h); type: cell-based
[1] = Trypanosoma brucei; read-out: B) T. brucei EC50

Chain of MetRS (T. brucei) (Q38C91 entry or part of it): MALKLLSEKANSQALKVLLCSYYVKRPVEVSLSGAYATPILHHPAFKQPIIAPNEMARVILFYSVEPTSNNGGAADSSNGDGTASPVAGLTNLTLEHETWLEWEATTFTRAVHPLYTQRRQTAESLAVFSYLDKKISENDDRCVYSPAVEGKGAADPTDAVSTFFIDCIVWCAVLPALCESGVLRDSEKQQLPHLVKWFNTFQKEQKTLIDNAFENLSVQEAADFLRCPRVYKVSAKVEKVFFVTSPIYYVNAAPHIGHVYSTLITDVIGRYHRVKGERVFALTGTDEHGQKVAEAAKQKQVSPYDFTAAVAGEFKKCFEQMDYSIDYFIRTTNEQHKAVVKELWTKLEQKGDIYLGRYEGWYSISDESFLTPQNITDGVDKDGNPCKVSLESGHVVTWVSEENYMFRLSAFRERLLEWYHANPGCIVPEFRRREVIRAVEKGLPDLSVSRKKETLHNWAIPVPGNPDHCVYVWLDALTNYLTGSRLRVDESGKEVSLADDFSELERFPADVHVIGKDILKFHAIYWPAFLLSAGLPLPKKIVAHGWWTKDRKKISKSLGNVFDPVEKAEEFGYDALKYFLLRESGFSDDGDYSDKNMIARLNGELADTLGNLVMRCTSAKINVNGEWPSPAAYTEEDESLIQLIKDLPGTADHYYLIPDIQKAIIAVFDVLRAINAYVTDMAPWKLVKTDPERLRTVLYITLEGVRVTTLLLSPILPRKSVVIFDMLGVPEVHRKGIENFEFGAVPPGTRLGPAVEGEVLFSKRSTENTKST

Compound: O=C(Cc1cc(Cl)cc(Cl)c1)NC1CCCC(c2nc3nc(Cl)ccc3[nH]2)C1 (stereo not drawn) [Compound 1786, N-(3-(5-chloro-1H-imidazo[4,5-b]pyridin-2-yl)cyclohexyl)-2-(3,5-dichlorophenyl)acetamide]
- pIC50 (MetRS (T. brucei)): 6.51
- pEC50 (T. brucei; [1]): 5.25

Compound: O=C(Cc1nc2cc(Cl)cc(Cl)c2[nH]1)NCc1nc2ccccc2[nH]1 [Compound 1764, N-((1H-benzo[d]imidazol-2-yl)methyl)-2-(5,7-dichloro-1H-benzo[d]imidazol-2-yl)acetamide]
- pIC50 (MetRS (T. brucei)): < 5.00
- pEC50 (T. brucei; [1]): < 4.70

Compound: Clc1cc(Cl)cc(CNC2CCCCN(c3nc4nc(Cl)ccc4[nH]3)C2)c1 (stereo not drawn) [Compound 1903, 1-(5-chloro-1H-imidazo[4,5-b]pyridin-2-yl)-N-(3,5-dichlorobenzyl) azepan-3-amine]
- pIC50 (MetRS (T. brucei)): 6.17
- pEC50 (T. brucei; [1]): 5.74

Compound: OC1NC(Cc2ccc(Cl)cc2Cl)=CN1Cc1nc2ccccc2[nH]1 (stereo not drawn) [Compound 1936, 3-((1H-benzo[d]imidazol-2-yl)methyl)-5-(2,4-dichlorobenzyl)-2,3-dihydro-1H-imidazol-2-ol]
- pIC50 (MetRS (T. brucei)): 7.19
- pEC50 (T. brucei; [1]): 5.74

Compound: O=C1CN(Cc2ccc(Cl)cc2Cl)CCN1Cc1nc2ccccc2[nH]1 [Compound 1747, 1-((1H-benzo[d]imidazol-2-yl)methyl)-4-(2,4-dichlorobenzyl)piperazin-2-one]
- pIC50 (MetRS (T. brucei)): < 5.00
- pEC50 (T. brucei; [1]): < 5.00

Compound: O=C(Cc1cc(Cl)cc(Cl)c1)NCc1nc2ncc(Cl)cc2[nH]1 [Compound 1877, N-({6-chloro-1H-imidazo[4,5-b]pyridin-2-yl}methyl)-2-(3,5-dichlorophenyl)acetamide]
- pIC50 (MetRS (T. brucei)): 6.72
- pEC50 (T. brucei; [1]): 5.06

Compound: COc1ccc(Oc2cccc(NCc3nc4ccccc4[nH]3)c2)c(Cl)c1 [Compound 1941, N-(1H-1,3-benzodiazol-2-ylmethyl)-3-(2-chloro-4-methoxyphenoxy)aniline]
- pIC50 (MetRS (T. brucei)): 6.56
- pEC50 (T. brucei; [1]): 5.50

Compound: O=C(Cc1ccc(Cl)cc1Cl)NCc1nc2ccc(Cl)cc2[nH]1 [Compound 1852, N-[(6-chloro-1H-1,3-benzodiazol-2-yl)methyl]-2-(2,4-dichlorophenyl)acetamide]
- pIC50 (MetRS (T. brucei)): 7.12
- pEC50 (T. brucei; [1]): 5.26

Compound: O=C(Nc1cccc(-c2nc3ccc(Cl)cc3[nH]2)c1)c1cc(Cl)cc(Cl)c1 [Compound 1953, 3,5-dichloro-N-[3-(6-chloro-1H-1,3-benzodiazol-2-yl)phenyl]benzamide]
- pIC50 (MetRS (T. brucei)): < 5.00
- pEC50 (T. brucei; [1]): 6.04
- pEC50 (T. brucei; read-out: B) T. brucei EC50): 6.09

Compound: O=C(COc1ccc(Cl)cc1Cl)NCCc1nc2ccccc2[nH]1 [Compound 1675, N-[2-(1H-1,3-benzodiazol-2-yl)ethyl]-2-(2,4-dichlorophenoxy)acetamide]
- pIC50 (MetRS (T. brucei)): 5.08
- pEC50 (T. brucei; [1]): < 4.70

Compound: O=C(Nc1cc(Cl)cc(Cl)c1)[C@H]1CCCN(c2nc3nc(Cl)ccc3[nH]2)C1 [Compound 1888, (S)-1-(5-chloro-1H-imidazo[4,5-b]pyridin-2-yl)-N-(3,5-dichlorophenyl)piperidine-3-carboxamide]
- pEC50 (T. brucei; [1]): < 4.70

Compound: Clc1cc(Cl)cc(CCN2CCCC(c3nc4nc(Cl)ccc4[nH]3)C2)c1 (stereo not drawn) [Compound 1812, 5-chloro-2-(1-(3,5-dichlorophenethyl)piperidin-3-yl)-1H-imidazo[4,5-b]pyridine]
- pEC50 (T. brucei; [1]): 5.42

Compound: O=C(N[C@H]1CCCN(c2nc3nc(Cl)ccc3[nH]2)C1)c1cc(Cl)cc(Cl)c1 [Compound 1889]
- pEC50 (T. brucei; [1]): < 4.70

Compound: O=C(CO)N(CCCNc1nc2ccc(F)nc2[nH]1)Cc1cc(Cl)cc(Cl)c1 [Compound 1973, N-(3,5-dichlorobenzyl)-N-(3-(5-fluoro-3H-imidazo[4,5-b]pyridin-2-ylamino)propyl)-2-hydroxyacetamide]
- pIC50 (MetRS (T. brucei)): 7.96

Compound: NC(=O)N(CCCNc1nc2ccc(F)nc2[nH]1)Cc1cc(Cl)cc(Cl)c1 [Compound 1974, 1-(3,5-dichlorobenzyl)-1-(3-(5-fluoro-3H-imidazo[4,5-b]pyridin-2-ylamino)propyl)urea]
- pIC50 (MetRS (T. brucei)): 8.15

Compound: Clc1cc(Cl)c2ccn(CCCNc3nc4ccc(Cl)nc4[nH]3)c2c1 [Compound 1996, 5-chloro-N-[3-(4,6-dichloro-1H-indol-1-yl)propyl]-3H-imidazo[4,5-b]pyridin-2-amine]
- pEC50 (T. brucei; [1]): 5.28

From patent US10913736B2 (UNIVERSITY OF WASHINGTON, priority 2014, dated 2021)
